Measurements taken from the supplement of paper PMC10307832.

Tests used:
Assay in all cases: relative viability (nuclei count vs DMSO), 5 days (fraction); higher = more cells survive
[1] = compound: CCN(CCO)CCCC(C)Nc1ccnc2cc(Cl)ccc12 [Hydroxychloroquine] + O=C(CCCCCCC(=O)Nc1ccccc1)NO [Vorinostat] (partner 1 µM)
Outline: (§1)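 Lung cancer cell lines, seeded in 1536-well plates, were treated the following day by pin tool with a single drug or with five library-drug doses (not always all listed) in √10 steps on top of a fixed anchor-drug dose. Cells were fixed and nuclei stained in one step after 5 days, and nuclei were counted. Relative viability is the nuclei count for treated wells divided by that for vehicle wells, reported as medians of duplicate plates.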

[2] = compound: CCN(CCO)CCCC(C)Nc1ccnc2cc(Cl)ccc12 [Hydroxychloroquine] + C[C@]1(O)C[C@@H](c2nc(-c3ccc4ccc(-c5ccccc5)nc4c3)c3c(N)nccn32)C1 [Linsitinib] (partner 1 µM)
Outline: as §1

[3] = compound: CCN(CCO)CCCC(C)Nc1ccnc2cc(Cl)ccc12 [Hydroxychloroquine] + CC1(C)CCC(c2ccc(Cl)cc2)=C(CN2CCN(c3ccc(C(=O)NS(=O)(=O)c4ccc(N[C@H](CCN5CCOCC5)CSc5ccccc5)c(S(=O)(=O)C(F)(F)F)c4)cc3)CC2)C1 [Navitoclax] (partner 0.5 µM)
Outline: as §1

[4] = compound: CCN(CCO)CCCC(C)Nc1ccnc2cc(Cl)ccc12 [Hydroxychloroquine] + Cc1nc(NC(=O)N2CCC[C@H]2C(N)=O)sc1-c1ccnc(C(C)(C)C(F)(F)F)c1 [Alpelisib] (partner 2 µM)
Outline: as §1

| Cell Line | relative viability ([1]; first compound 0.5 µM) | relative viability ([1]; first compound 1.581 µM) | relative viability ([1]; first compound 5 µM) | relative viability ([1]; first compound 15.81 µM) | relative viability ([1]; first compound 50 µM) | relative viability ([2]; first compound 0.5 µM) | relative viability ([2]; first compound 1.581 µM) | relative viability ([2]; first compound 5 µM) | relative viability ([2]; first compound 15.81 µM) | relative viability ([2]; first compound 50 µM) | relative viability ([3]; first compound 0.5 µM) | relative viability ([3]; first compound 1.581 µM) | relative viability ([3]; first compound 5 µM) | relative viability ([3]; first compound 15.81 µM) | relative viability ([3]; first compound 50 µM) | relative viability ([4]; first compound 0.5 µM) | relative viability ([4]; first compound 1.581 µM) | relative viability ([4]; first compound 5 µM) | relative viability ([4]; first compound 15.81 µM) | relative viability ([4]; first compound 50 µM) |
| --- | --- | --- | --- | --- | --- | --- | --- | --- | --- | --- | --- | --- | --- | --- | --- | --- | --- | --- | --- | --- |
| NCI-H1395 | 0.756 | 0.716 | 0.606 | 0.743 | 0.674 | 0.964 | 0.979 | 1.13 | 1.13 | 1.18 | 1.21 | 1.05 | 1.17 | 1.18 | 1.01 | 0.979 | 0.899 | 0.975 | 1.09 | 0.954 |
| HCC-827 | 0.811 | 0.873 | 0.786 | 0.759 | 0.571 | 1.01 | 0.927 | 0.922 | 0.956 | 0.977 | 0.941 | 1.02 | 1.03 | 1.1 | 1.02 | 1.05 | 1.03 | 0.939 | 1.03 | 0.979 |
| NCI-H2228 | 0.5 | 0.594 | 0.457 | 0.515 | 0.839 | 0.958 | 0.647 | 0.706 | 0.632 | 0.703 | 0.671 | 0.717 | 1.04 | 0.78 | 1.16 | 0.705 | 0.546 | 0.682 | 0.549 | 0.735 |
| EMC-BAC-2 | 0.492 | 0.443 | 0.375 | 0.425 | 0.328 | 0.817 | 0.772 | 0.87 | 0.82 | 0.852 | 1.17 | 1.23 | 1.17 | 1.17 | 1.36 | 0.736 | 0.708 | 0.767 | 0.727 | 0.75 |
| NCI-H23 | 0.674 | 0.566 | 0.56 | 0.626 | 0.67 | 0.499 | 0.693 | 0.56 | 0.553 | 0.546 | 0.841 | 0.822 | 0.842 | 0.732 | 0.953 | 0.863 | 0.725 | 0.701 | 0.609 | 0.57 |
| SK-LU-1 | 0.779 | 0.719 | 0.804 | 0.799 | 0.643 | 1.11 | 1.09 | 1.04 | 1.19 | 0.982 | 0.747 | 0.96 | 0.851 | 1.21 | 0.658 | 0.964 | 0.852 | 1.05 | 1.06 | 1.03 |
| LC-2-ad | 0.707 | 0.691 | 0.694 | 0.702 | 0.697 | 0.92 | 0.782 | 0.93 | 0.863 | 0.818 | 0.337 | 0.332 | 0.478 | 0.416 | 0.405 | 0.873 | 0.851 | 0.904 | 0.873 | 0.93 |
| HCC-15 | 0.796 | 0.828 | 0.902 | 0.9 | 0.775 | 0.815 | 0.861 | 0.879 | 0.912 | 0.898 | 0.72 | 0.669 | 0.702 | 0.758 | 0.714 | 0.925 | 0.841 | 0.839 | 0.879 | 0.909 |
